Reference: patent publication US9907879B2, “Haemostatic composition comprising crystalline polyphosphate” (BK Giulini GMBH, priority 2013, dated 2018)

Columns and labels:
[1] = system: thrombin formation in blood plasma; assay: Assay for measuring thrombin formation in real-time (thrombogram); type: biochemical; conditions: low-thrombocyte plasma; maximum thrombin concentration in thrombogram
Description: This method was used to determine the formation of thrombin in blood plasma, triggered in each case by the polyphosphates, in relation to time and to the amounts of polyphosphate used. With the aid of the so-called thrombograms thus obtained, it is possible to draw conclusions concerning the response rate and the extent of thrombin formation. The measurements were carried out in accordance with the instructions from Thrombinoscope BV (manufacturer of the below-mentioned fluorogenic substrate) in a fluorometer (Fluoroscan Ascent, Thermo Scientific) equipped with a dispenser (see F. Müller et al., Cell 2009, 139, 1143-1156 and Supplemental Data). […] Inner filter effects and the substrate consumption were corrected by calibrating each measurement against a fluorescence curve which was determined by means of a mixture of the plasma (80 μl) with a fixed amount of thrombin/α2-macroglobulin complex (Thrombin Calibrator, Thrombinoscope BV). […]
Characteristic of the thrombograms are, in particular, the delay time and the endogenous thrombin potential (ETP). […] ETP refers to the integral of the measured curve of the thrombin concentration. […]
Table 1 below characterizes the investigated phosphates in terms of their water solubility, their chain length, their solid structure and their hemostatic action. Here, water-soluble refers to phosphates having a water solubility of at least 1 g per 100 g of water, as determined by the above-described technique. Here, hemostatic refers to phosphates where the thrombograms, as determined by the above-described technique, have a maximum thrombin concentration of at least 50 nM. As can be clearly read off from Table 1, all the crystalline, water-insoluble polyphosphates according to the invention are notable for a hemostatic action, whereas amorphous, water-soluble polyphosphates and also crystalline mono-, tri- and metaphosphates are not hemostatic.

[2] = Determination of solubility in water; type: physicochemical; conditions: distilled water, 20-22° C., shaken 20 min
Description: The polyphosphates to be investigated were each weighed out in a 250 ml Erlenmeyer flask (5 g±0.01 g) and admixed with distilled water (50 ml, 20-22° C.). The mixture thus obtained was shaken at 200 revolutions per minute (rpm, rotary movement) for 20 min. Thereafter, the mixture was transferred to a centrifuge tube and centrifuged at 5000 rpm for 20 min. […] The solubility in g per 100 g of water was then obtained from the formula TR×10, where TR represents the determined dry residue in grams.

Q: With `O=P([O-])([O-])OP(=O)([O-])OP(=O)([O-])[O-].[Na+].[Na+].[Na+].[Na+].[Na+]` [Example V1, sodium triphosphate] as the compound, how does the Hemostatic [1] read?
A: No (hemostatic refers to phosphates where the thrombograms, as determined by the above-described technique, have a maximum thrombin concentration of at least 50 nM)

Q: What does the source list for `O=P1([O-])OP(=O)([O-])OP(=O)([O-])O1.[Na+].[Na+].[Na+]` [Example V7, sodium trimetaphosphate]?
A: Water-soluble [2]: Yes (water-soluble refers to phosphates having a water solubility of at least 1 g per 100 g of water); Hemostatic [1]: No (hemostatic refers to phosphates where the thrombograms, as determined by the above-described technique, have a maximum thrombin concentration of at least 50 nM)

Q: For `O.O.O=P([O-])([O-])O.[Ca+2]` [Example V8, dicalcium phosphate dihydrate], which Hemostatic [1] is on record?
A: No (hemostatic refers to phosphates where the thrombograms, as determined by the above-described technique, have a maximum thrombin concentration of at least 50 nM)
